Tested on: neuropathic mechanical hyperalgesia after partial sciatic nerve ligation
Assay: Seltzer model (partial sciatic nerve ligation) of neuropathic pain, paw withdrawal threshold
Type: in vivo, rat
Settings: for % Reversal [mean ± SEM]: rat; for % reversal of neuropathic hyperalgesia / % reversal of neuropathic hyperalgesia, maximum analgesic efficacy: rat Seltzer model
Method: In the Seltzer model, the partial sciatic nerve ligation model of neuropathic pain was used to produce neuropathic hyperalgesia in rats (Seltzer et al., “A Novel Behavioral Model of Neuropathic Pain Disorders Produced in Rats by Partial Sciatic Nerve Injury,” Pain 43:205-218 (1990)). Partial ligation of the left sciatic nerve was performed under isoflurane/O2 inhalation anaesthesia. Following induction of anesthesia, the left thigh of the male, 6-7 week old Jcl:SD rat was shaved. The sciatic nerve was exposed at high thigh level through a small incision and was carefully cleared of surrounding connective tissues at a site near the trocanther just distal to the point at which the posterior biceps semitendinosus nerve branches off of the common sciatic nerve. A 7-0 silk suture was inserted into the nerve with a ⅜ curved, reversed-cutting mini-needle and tightly ligated so that the dorsal ⅓ to ½ of the nerve thickness was held within the ligature. The wound was closed with a single muscle suture (4-0 nylon (Vicryl)) and vetbond tissue glue. The wound area was then dusted with antibiotic powder. Sham treatment involved an identical surgical procedure except that the sciatic nerve was not manipulated or ligated.
Following surgery, animals were weighed and placed on a warm pad until they recovered from anesthesia. Animals were then returned to their home cages until behavioral testing began. The animal was assessed for response to noxious mechanical stimuli by determining PWT for the rear paw of the animal, as described below, prior to surgery (baseline), then immediately prior to and 1, 3, 5, 7, and 24 hours after oral drug-in-vehicle administration (for day 1). Thus, the 24 hour time point was the start of the next day when drug-in-vehicle was again orally administered (24 hours after the prior administration). On days 2 and 3, PWT response was determined 1, 3, and 24 hours thereafter. Percentage reversal of neuropathic hyperalgesia at each of the specified times after administration was defined as: […]
Additionally, 10 mg/kg of pregabalin (Kemprotec, Ltd., Middlesbrough, UK), an anticonvulsant accepted for relief of particular neuropathic pain, in vehicle and the vehicle alone (0.5% weight/volume methylcellulose (400cP, Wako Pure Chemical Industries, Ltd.)/aqueous solution) were orally administered as controls. […] Ten rats that underwent partial ligation of the left sciatic nerve were used for each treatment group. Dunnett's test was conducted for the % reversal; values with p<0.05 were considered to be statistically significant.
Additionally, as a control the rats underwent sham surgery in which an identical surgical procedure was followed with regard to the right thigh but the sciatic nerve was neither manipulated nor ligated.
Response to Mechanical Stimuli as an Assessment of Mechanical Hyperalgesia: The paw pressure assay was used to assess mechanical hyperalgesia. […] Biochem. and Behavior 31:451-455 (1988). The maximum weight that could be applied to the hind paw was set at 250 g and the end point was taken as complete withdrawal of the paw. PWT was determined once for each rat at each time point and either only the affected (ipsilateral) paw was tested, or both the ipsilateral and contralateral (non-injured) paw were tested.

For `CC1CN(c2ncc(C(O)CO)cc2F)CCN1C(=O)Nc1nc2cc(F)ccc2s1.O=C(O)C=CC(=O)O` (centres unmarked), the “% Reversal [mean ± SEM]” value (1 mg/kg oral once daily, 1 hours (day 2) after administration) was 12.04 ± 4.92 %, the “% Reversal [mean ± SEM]” value (1 mg/kg oral once daily, 1 hours (day 3) after administration) was 6.44 ± 6.50% and the “% Reversal [mean ± SEM]” value (1 mg/kg oral once daily, 3 hours (day 2) after administration) was 12.84 ± 4.12 %. The “% Reversal [mean ± SEM]” value (1 mg/kg oral once daily, 3 hours (day 3) after administration) was 9.58 ± 5.23%, the “% Reversal [mean ± SEM]” value (1 mg/kg oral once daily, 24 hours (0 hrs day 2) after administration) was 0.71 ± 2.46% and the “% Reversal [mean ± SEM]” value (1 mg/kg oral once daily, 24 hours (0 hrs day 3) after administration) was 4.89 ± 2.68%. For the same compound, the “% Reversal [mean ± SEM]” value (1 mg/kg oral once daily, 24 hours (0 hrs day 4) after administration) was 0.51 ± 3.15%, the “% Reversal [mean ± SEM]” value (1 mg/kg oral, 1 hours (day 1) after administration) was 14.60 ± 4.26% and the “% Reversal [mean ± SEM]” value (1 mg/kg oral, 3 hours (day 1) after administration) was 17.04 ± 4.91 %. For the same compound, the “% Reversal [mean ± SEM]” value (1 mg/kg oral, 5 hours (day 1) after administration) was 11.39 ± 3.13 %, the “% Reversal [mean ± SEM]” value (1 mg/kg oral, 7 hours (day 1) after administration) was 3.04 ± 4.49% and the “% Reversal [mean ± SEM]” value (3 mg/kg oral once daily, 1 hours (day 2) after administration) was 12.57 ± 2.38 %. The “% Reversal [mean ± SEM]” value (3 mg/kg oral once daily, 1 hours (day 3) after administration) was 11.80 ± 3.29%, the “% Reversal [mean ± SEM]” value (3 mg/kg oral once daily, 3 hours (day 2) after administration) was 17.14 ± 5.38 % and the “% Reversal [mean ± SEM]” value (3 mg/kg oral once daily, 3 hours (day 3) after administration) was 17.34 ± 3.91 %. The “% Reversal [mean ± SEM]” value (3 mg/kg oral once daily, 24 hours (0 hrs day 2) after administration) was −5.34 ± 4.20%, the “% Reversal [mean ± SEM]” value (3 mg/kg oral once daily, 24 hours (0 hrs day 3) after administration) was −3.85 ± 4.61% and the “% Reversal [mean ± SEM]” value (3 mg/kg oral once daily, 24 hours (0 hrs day 4) after administration) was −1.95 ± 2.97%. For the same compound, the “% Reversal [mean ± SEM]” value (3 mg/kg oral, 1 hours (day 1) after administration) was 15.69 ± 4.62%, the “% Reversal [mean ± SEM]” value (3 mg/kg oral, 3 hours (day 1) after administration) was 18.39 ± 1.67 % and the “% Reversal [mean ± SEM]” value (3 mg/kg oral, 5 hours (day 1) after administration) was 12.22 ± 1.89 %. The “% Reversal [mean ± SEM]” value (3 mg/kg oral, 7 hours (day 1) after administration) was 7.65 ± 2.79%, the “% Reversal [mean ± SEM]” value (10 mg/kg oral once daily, 1 hours (day 2) after administration) was 27.41 ± 4.56 % and the “% Reversal [mean ± SEM]” value (10 mg/kg oral once daily, 1 hours (day 3) after administration) was 23.36 ± 4.69 %. The “% Reversal [mean ± SEM]” value (10 mg/kg oral once daily, 3 hours (day 2) after administration) was 29.12 ± 5.44 %, the “% Reversal [mean ± SEM]” value (10 mg/kg oral once daily, 3 hours (day 3) after administration) was 28.91 ± 5.72 % and the “% Reversal [mean ± SEM]” value (10 mg/kg oral once daily, 24 hours (0 hrs day 2) after administration) was 3.38 ± 3.97%. For the same compound, the “% Reversal [mean ± SEM]” value (10 mg/kg oral once daily, 24 hours (0 hrs day 3) after administration) was 2.87 ± 4.62%, the “% Reversal [mean ± SEM]” value (10 mg/kg oral once daily, 24 hours (0 hrs day 4) after administration) was 11.09 ± 3.45% and the “% Reversal [mean ± SEM]” value (10 mg/kg oral, 1 hours (day 1) after administration) was 32.51 ± 5.00 %. The “% Reversal [mean ± SEM]” value (10 mg/kg oral, 3 hours (day 1) after administration) was 34.17 ± 5.60 %, the “% Reversal [mean ± SEM]” value (10 mg/kg oral, 5 hours (day 1) after administration) was 19.59 ± 3.04 % and the “% Reversal [mean ± SEM]” value (10 mg/kg oral, 7 hours (day 1) after administration) was 17.06 ± 2.95 %. The “% reversal of neuropathic hyperalgesia” value (oral 1 mg/kg once daily, day 2, 3 hour time point) was 12.84%, the “% reversal of neuropathic hyperalgesia, maximum analgesic efficacy” value (oral 1 mg/kg, single (day 1) administration) was 17.04% and the “% reversal of neuropathic hyperalgesia” value (oral 3 mg/kg once daily, day 2, 3 hour time point) was 17.14%. The “% reversal of neuropathic hyperalgesia” value (oral 3 mg/kg once daily, day 3, 3 hour time point) was 17.34%, the “% reversal of neuropathic hyperalgesia, maximum analgesic efficacy” value (oral 3 mg/kg, 3 h after day 1 administration) was 18.39% and the “% reversal of neuropathic hyperalgesia” value (oral 10 mg/kg once daily, day 2, 3 hour time point) was 29.12%. For the same compound, the “% reversal of neuropathic hyperalgesia” value (oral 10 mg/kg once daily, day 3, 3 hour time point) was 28.91% and the “% reversal of neuropathic hyperalgesia” value (oral 10 mg/kg, 3 h after day 1 administration (maximum)) was 34.17%.

Reference: patent publication US9273043B2, “TRPV1 antagonists including dihydroxy substituent and uses thereof” (Purdue Pharma L.P., priority 2011, dated 2016)
